Patent US9434734B2, “Substituted pyrazoloquinazolinones and pyrroloquinazolinones as allosteric modulators of group II metabotropic glutamate receptors” (Domain Therapeutics, priority 2012, dated 2016)

Legend:
[1] = target: T1, human mGluR2 (hmGluR2) transiently over-expressed in HEK-293 cells (Homo sapiens, UniProt Q14416); assay: Human mGluR2 negative allosteric modulator evaluation using Ca++ functional assay (agonist and NAM activity); type: cell-based; conditions: hmGluR2 in HEK-293 cells, EC80 glutamate, Fluo4AM calcium readout; read-out: mGluR2 negative allosteric modulator activity IC50
T1 construct: expressed in transfected cells; host or cells: HEK-293 cells, transient co-transfection by electroporation
Description: Human mGluR2 Negative Allosteric Modulator Evaluation Using Ca^++ Functional Assay
Compounds of the present invention were tested successively for their agonist and negative allosteric modulator activities on human mGluR2 (hmGluR2) transiently over-expressed in HEK-293 cells. They exert agonist activity if they are able to activate mGluR2 by themselves, i.e., in absence of the endogenous agonist glutamate; and they exert negative allosteric modulator activity if they decrease the action of the endogenous agonist glutamate.
HEK-293 cells were maintained in Modified Eagle's Medium supplemented with 10% Foetal Calf Serum, 1% Penicillin/Streptomycin and 1% nonessential amino acids at 37° C./5% CO2.
Cells were plated after transfection onto polyornithine coated, clear bottom, black-walled, 96-well plates and cultured for 24 h.
Receptor activity was detected by changes in intracellular calcium measured using the fluorescent Ca^2+ sensitive dye, Fluo4AM (Molecular Probes).
The day of the assay, medium was aspirated and replaced during 3 hours by medium without serum supplemented with 1% Glutamax, 1% Penicillin/Streptomycin and 1% nonessential amino acids. Then, cells were washed with freshly prepared buffer B (HBSS 1× (PAA), Hepes 20 mM, MgSO4-7H2O 1 mM, Na2CO3 3.3 mM, CaCl2-2H2O 1.3 mM, 0.5% BSA, Probenecid 2.5 mM) and loaded at 37° C./5% CO2 for 1.5 hours with buffer B containing 1 μM Fluo4AM, 0.1 mg/mL Pluronic Acid, 7 μg/mL Glutamate Pyruvate Transaminase and 2 mM sodium pyruvate. Afterwards cells were washed twice with buffer B and 50 μL of this buffer were added to each well.
Agonist and negative allosteric modulator activities of compounds were consecutively evaluated on the same cells plate. […] Then, the cells were stimulated by an EC80 glutamate concentration and fluorescence was recorded for additional 60 s. EC80 glutamate concentration is the concentration giving 80% of the maximal glutamate response. Agonist and/or negative allosteric modulator activity(ies) were evaluated in comparison to basal signal or signal evoked by EC80 glutamate alone, respectively.
For potency determination, a dose-response test was performed using 8 concentrations of each compound of the invention. Dose-response curves were fitted using the sigmoidal dose-response (variable slope) analysis in GraphPad Prism program (Graph Pad Inc) and EC50 of agonist/IC50 of negative allosteric modulator activity was calculated. Dose-response experiments were all performed in duplicate, two times independently.

T1 sequence (Q14416 19-872): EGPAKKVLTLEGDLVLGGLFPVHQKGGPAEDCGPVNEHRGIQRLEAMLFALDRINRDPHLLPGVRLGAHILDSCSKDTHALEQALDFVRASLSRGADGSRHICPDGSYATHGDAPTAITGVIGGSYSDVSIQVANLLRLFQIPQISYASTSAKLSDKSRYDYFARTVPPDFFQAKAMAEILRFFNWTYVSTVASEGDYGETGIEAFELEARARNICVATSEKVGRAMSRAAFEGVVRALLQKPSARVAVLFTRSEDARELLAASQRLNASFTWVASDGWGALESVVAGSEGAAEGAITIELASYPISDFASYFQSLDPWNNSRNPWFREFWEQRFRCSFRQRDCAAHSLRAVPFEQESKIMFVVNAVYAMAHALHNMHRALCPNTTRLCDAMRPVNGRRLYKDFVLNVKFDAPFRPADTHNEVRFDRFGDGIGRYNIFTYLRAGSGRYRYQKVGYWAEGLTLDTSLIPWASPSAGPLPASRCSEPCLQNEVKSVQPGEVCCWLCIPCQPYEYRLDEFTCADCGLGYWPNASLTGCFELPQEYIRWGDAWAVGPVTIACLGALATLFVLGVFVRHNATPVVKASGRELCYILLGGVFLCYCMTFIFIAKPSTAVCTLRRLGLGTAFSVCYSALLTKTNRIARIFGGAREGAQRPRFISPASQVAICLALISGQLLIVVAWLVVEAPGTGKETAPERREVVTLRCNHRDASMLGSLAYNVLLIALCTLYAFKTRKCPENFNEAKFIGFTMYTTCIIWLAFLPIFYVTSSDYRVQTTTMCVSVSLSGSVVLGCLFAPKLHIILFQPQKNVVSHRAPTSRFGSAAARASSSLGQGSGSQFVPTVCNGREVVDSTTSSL

SMILES	IC50 [1] [nM]	melting point [°C]
CCn1c(=O)c2ccc(-c3cccc(S(=O)(=O)N(C)C)c3)cc2n2nc(-c3ccccc3)cc12 [Example 39, N,N-Dimethyl-3-(4-Ethyl-5-oxo-2-phenyl-4,5-dihydro-pyrazolo[1,5-a]quinazolin-8-yl)-benzenesulfonamide]	< 1000	197 to 198
Cc1cc(-c2ccc3c(=O)n(C)c4cc(C5CCCOC5)nn4c3c2)cc(C)n1.Cl (centres unmarked) [Example 108, 8-(2,6-Dimethyl-pyridin-4-yl)-4-methyl-2-(tetrahydro-pyran-3-yl)-4H-pyrazolo[1,5-a]quinazolin-5-one]	< 1000	182 to 193
Cc1cc(-c2cc3n(C)c(=O)c4ccc(-c5c[nH]nc5C(F)(F)F)cc4n3n2)cc(C)n1.Cl [Example 147, 2-(2,6-Dimethyl-pyridin-4-yl)-4-methyl-8-(3-trifluoromethyl-1H-pyrazol-4-yl)-4H-pyrazolo[1,5-a]quinazolin-5-one]	< 1000	> 250
Cc1cc(-c2ccc3c(=O)n(C)c4cc(C5CCOC5)nn4c3c2)cc(C)n1.Cl (centres unmarked) [Example 106, 8-(2,6-Dimethyl-pyridin-4-yl)-4-methyl-2-(tetrahydro-furan-3-yl)-4H-pyrazolo[1,5-a]quinazolin-5-one]	< 1000	> 250
Cc1cc(-c2ccc3c(=O)n(C)c4cc(-c5cnn(C)c5)nn4c3c2)cc(C)n1.Cl [Example 130, 8-(2,6-Dimethyl-pyridin-4-yl)-4-methyl-2-(1-methyl-1H-pyrazol-4-yl)-4H-pyrazolo[1,5-a]quinazolin-5-one]	< 1000	> 250
Cl.Cn1c(=O)c2ccc(-c3ccc(N)nc3)cc2n2nc(C3CCSCC3)cc12 [Example 83, 8-(6-Amino-pyridin-3-yl)-4-methyl-2-(tetrahydro-thiopyran-4-yl)-4H-pyrazolo[1,5-a]quinazolin-5-one]	< 1000	> 250
Cc1nc(N)ccc1-c1ccc2c(=O)n(C)c3cc(-c4ccccc4)nn3c2c1.Cl [Example 25, 8-(6-Amino-2-methyl-pyridin-3-yl)-4-methyl-2-phenyl-4H-pyrazolo[1,5-a]quinazolin-5-one]	< 1000	218 to 220
COCCc1cc2n(C)c(=O)c3ccc(-c4ccc(N)nc4)cc3n2n1.Cl [Example 53, 8-(6-Amino-pyridin-3-yl)-2-(2-methoxy-ethyl)-4-methyl-4H-pyrazolo[1,5-a]quinazolin-5-one]	< 1000	198 to 202
Cc1cc(-c2ccc3c(=O)n(C)c4cc(-c5ccccc5)cn4c3c2)cc(C)n1.Cl [Example 111, 8-(2,6-Dimethyl-pyridin-4-yl)-4-methyl-2-phenyl-4H-pyrrolo[1,2-a]quinazolin-5-one]	< 1000	> 250
Cl.Nc1ccc(-c2ccc3c(=O)n(C4CCC4)c4cc(-c5ccccc5)nn4c3c2)cn1 [Example 48, 8-(6-Amino-pyridin-3-yl)-4-cyclobutyl-2-phenyl-4H-pyrazolo[1,5-a]quinazolin-5-one]	< 1000	203 to 205
Cc1cc(-c2ccc3c(=O)n(C)c4cc(-c5ccccc5)nn4c3c2)cc(C)n1.Cl [Example 37, 8-(2,6-Dimethyl-pyridin-4-yl)-4-methyl-2-phenyl-4H-pyrazolo[1,5-a]quinazolin-5-one]	< 1000	> 250
Cc1ncccc1-c1ccc2c(=O)n(C)c3cc(-c4ccnc(C(F)(F)F)c4)nn3c2c1.Cl [Example 135, 4-Methyl-8-(2-methyl-pyridin-3-yl)-2-(2-trifluoromethyl-pyridin-4-yl)-4H-pyrazolo[1,5-a]quinazolin-5-one]	< 1000	> 250
Cn1c(=O)c2ccc(-c3ccc(S(N)(=O)=O)cc3)cc2n2nc(-c3ccccc3)cc12 [Example 10, 4-(4-Methyl-5-oxo-2-phenyl-4,5-dihydro-pyrazolo[1,5-a]quinazolin-8-yl)-benzenesulfonamide]	< 1000	> 250
Cn1cc(-c2cc3n(C)c(=O)c4ccc(-c5ccccc5)cc4n3n2)cn1 [Example 124, 4-Methyl-2-(1-methyl-1H-pyrazol-4-yl)-8-phenyl-4H-pyrazolo[1,5-a]quinazolin-5-one]	< 1000	228 to 231
Cc1n[nH]cc1-c1ccc2c(=O)n(C)c3cc(-c4ccccc4)nn3c2c1 [Example 18, 4-Methyl-8-(3-methyl-1H-pyrazol-4-yl)-2-phenyl-4H-pyrazolo[1,5-a]quinazolin-5-one]	< 1000	174 to 176
Cc1cc(N)ncc1-c1ccc2c(=O)n(C)c3cc(-c4ccccc4)nn3c2c1.Cl [Example 24, 8-(6-Amino-4-methyl-pyridin-3-yl)-4-methyl-2-phenyl-4H-pyrazolo[1,5-a]quinazolin-5-one]	< 1000	235 to 240
Cn1c(=O)c2ccc(-c3cccc(C#N)c3)cc2n2nc(-c3ccccc3)cc12 [Example 35, 3-(4-Methyl-5-oxo-2-phenyl-4,5-dihydro-pyrazolo[1,5-a]quinazolin-8-yl)-benzonitrile]	< 1000	> 250
Cn1c(=O)c2ccc(-c3ccc4nccn4c3)cc2n2nc(-c3ccccc3)cc12 [Example 8, 8-Imidazo[1,2-a]pyridin-6-yl-4-methyl-2-phenyl-4H-pyrazolo[1,5-a]quinazolin-5-one]	< 1000	> 250
Cl.Cn1c(=O)c2ccc(-c3ccc(N)nc3)cc2n2nc(Cc3ccccc3)cc12 [Example 79, 8-(6-Amino-pyridin-3-yl)-2-benzyl-4-methyl-4H-pyrazolo[1,5-a]quinazolin-5-one]	< 1000	> 250
Cc1ccc(-c2ccc3c(=O)n(C)c4cc(-c5ccnc(C(F)(F)F)c5)nn4c3c2)c(C)n1.Cl [Example 143, 8-(2,6-Dimethyl-pyridin-3-yl)-4-methyl-2-(2-trifluoromethyl-pyridin-4-yl)-4H-pyrazolo[1,5-a]quinazolin-5-one]	< 1000	> 250
Cc1cc(-c2ccc3c(=O)n(C)c4cc(-c5ccccc5)nn4c3c2)cnc1N.Cl [Example 26, 8-(6-Amino-5-methyl-pyridin-3-yl)-4-methyl-2-phenyl-4H-pyrazolo[1,5-a]quinazolin-5-one]	< 1000	226 to 227
CCCn1c(=O)c2ccc(-c3cccc(S(=O)(=O)N(C)C)c3)cc2n2nc(-c3ccccc3)cc12 [Example 40, N,N-Dimethyl-3-(4-propyl-5-oxo-2-phenyl-4,5-dihydro-pyrazolo[1,5-a]quinazolin-8-yl)-benzenesulfonamide]	< 1000	112 to 116
Cl.Cn1c(=O)c2ccc(-c3cccnc3)cc2n2nc(C3CCOCC3)cc12 [Example 89, 4-Methyl-8-pyridin-3-yl-2-(tetrahydro-pyran-4-yl)-4H-pyrazolo[1,5-a]quinazolin-5-one]	< 1000	202 to 224
Cc1cc(-c2ccc3c(=O)n(C)c4cc(-c5ccnc(C(F)(F)F)c5)nn4c3c2)ccn1.Cl [Example 138, 4-Methyl-8-(2-methyl-pyridin-4-yl)-2-(2-trifluoromethyl-pyridin-4-yl)-4H-pyrazolo[1,5-a]quinazolin-5-one]	< 1000	> 250
Cc1n[nH]cc1-c1ccc2c(=O)n(C)c3cc(C4CCCCC4)nn3c2c1 [Example 75, 2-Cyclohexyl-4-methyl-8-(3-methyl-1H-pyrazol-4-yl)-4H-pyrazolo[1,5-a]quinazolin-5-one]	< 1000	> 250
Cn1c(=O)c2ccc(-c3ccc(N)cc3)cc2n2nc(-c3ccccc3)cc12 [Example 3, 8-(4-Amino-phenyl)-4-methyl-2-phenyl-4H-pyrazolo[1,5-a]quinazolin-5-one]	< 1000	173 to 175
Cc1n[nH]cc1-c1ccc2c(=O)n(C)c3cc(-c4ccc(F)cc4)nn3c2c1 [Example 81, 2-(4-Fluoro-phenyl)-4-methyl-8-(3-methyl-1H-pyrazol-4-yl)-4H-pyrazolo[1,5-a]quinazolin-5-one]	< 1000	> 250
Cl.Cn1cc(-c2cc3n(C)c(=O)c4ccc(-c5ccncc5)cc4n3n2)cn1 [Example 129, 4-Methyl-2-(1-methyl-1H-pyrazol-4-yl)-8-pyridin-4-yl-4H-pyrazolo[1,5-a]quinazolin-5-one]	< 1000	> 250
